# System: RSV A2
# Assay: Screening for RSV inhibition using Viral ToxGlo assay (cytopathic effect inhibition in HEp-2 cells)
# Format: cell-based, Respiratory Syncytial Virus (RSV)
# Details: human respiratory syncytial virus; RSV A2 in HEp-2 cells, MOI 0.5, 72h p.i., cytopathic effect inhibition relative to virus control, Viral ToxGlo luminescence
# Method: Protocol for Screening Antiviral Compounds for RSV Inhibition and Cytotoxicity Using Viral ToxGlo Assay
# HEp-2 cells were maintained in Eagle's minimum essential medium (EMEM) with Earle's BSS adjusted to contain 2 mM L-glutamine, 10% fetal bovine serum, 100 U/ml penicillin and 100 µg/ml streptomycin. For the purposes of the screening assay they were grown to 90% confluency, trypsinized and recovered. The trypsin was neutralised with cell culture media and cells were centrifuged at 150×g for 5 minutes before discarding the supernatant and resuspending cell pellet in assay media (EMEM with Earle's BSS adjusted to contain 2 mM L-glutamine, 2% fetal bovine serum and 100 U/ml penicillin and 100 µg/ml streptomycin). The cells were seeded into white clear-bottomed cell culture plates at a density of 1.5×10^4 cells/well in 50 μl and 4×10^3 cells/well in 25 μl for 96 well plates and 384 well plates respectively. For the media/background control column assay media only was added. Cell plates were placed in a humid chamber and incubated overnight at 37° C./5% CO2. After overnight incubation cells were checked for confluency and healthy appearance.
# Test articles were made up at 10× test concentration in a maximum DMSO concentration of 10% (final assay concentration maximal 1% DMSO) and added to the cell plates in volumes of […] for 96 well plates and 5 μl for 384 well plates. For cell control and virus control wells the test article solvent only was added. Virus or assay media for cytotoxicity test wells and media/cell control wells was added immediately after test articles at an MOI of […] for 96 and 384 well plates respectively. Virus suspension was prepared by thawing RSV A2 frozen stocks and diluting to the required concentration of plaque forming units in assay media on ice.
# Cell plates were further incubated inside a humid chamber for 72h p.i at 37° C./5% CO2. After the incubation period cells were observed under the microscope to check for characteristic cytopathic effect in virus control wells and healthy cells in the cell control wells. After plates were adjusted to room temperature 20/40 μl Viral ToxGlo (Promega) was added to each well of the 384/96 well cell plates. Plates were incubated at room temperature, protected from light on a plate rocker for 20 minutes before measuring the luminescence on a spectrophotometer (Biotek Synergy HTX).
row,Structure (SMILES),EC50 [nM]
1,"CC(C)NC(=O)c1cccc(Nc2ccc(C(=O)N=C3NCCN3)cc2C2CC2)c1-c1ccoc1 [Compound 92, 3-[(2-cyclopropyl-4-{[(2Z)-imidazolidin-2-ylidene]carbamoyl}phenyl)amino]-2-(furan-3-yl)-N-(propan-2-yl)benzamide]",277
2,"O=C(N=C1NCCN1)c1ccc(Nc2cccc(C(=O)NC3CCS(=O)(=O)CC3)c2Cl)c(C2CC2)c1 [Compound 94, 4-({2-chloro-3-[(1,1-dioxo-1λ^6-thian-4-yl)carbamoyl]phenyl}amino)-3-cyclopropyl-N-[(2E)-imidazolidin-2-ylidene]benzamide]",240
3,"O=C(N=C1NCCN1)c1ccc(Nc2cccc(C(=O)NC3CCOC3)c2)c(C2CCCC2)c1 (stereo not shown) [Compound 95, 3-cyclopentyl-N-[(2Z)-imidazolidin-2-ylidene]-4-({3-[(oxolan-3-yl)carbamoyl]phenyl}amino)benzamide]",95.9
4,"O=C(N=C1NCCN1)c1ccc(Nc2cccc(C(=O)NC3CCOCC3)c2)c(C2CCCC2)c1 [Compound 96, 3-cyclopentyl-N-[(2Z)-imidazolidin-2-ylidene]-4-({3-[(oxan-4-yl)carbamoyl]phenyl}amino)benzamide]",839
5,"O=C(N=C1NCCN1)c1ccc(Nc2cccc(C(=O)N3CCOCC3)c2Cl)c(C2CCCO2)c1 (stereo not shown) [Compound 97, 4-{[2-chloro-3-(morpholine-4-carbonyl)phenyl]amino}-N-[(2E)-imidazolidin-2-ylidene]-3-(oxolan-2-yl)benzamide]",51
6,"CC(C)NC(=O)c1cccc(Nc2ccc(C(=O)N=C3NCCN3)cc2C2CC2)c1F [Compound 98, 3-cyclopropyl-4-({2-fluoro-3-[(propan-2-yl)carbamoyl]phenyl}amino)-N-[(2Z)-imidazolidin-2-ylidene]benzamide]",228
7,"CC1(NC(=O)c2nccc(Nc3c(F)cc(C(=O)N=C4NCCN4)cc3C3CC3)c2F)CC1 [Compound 99, 4-[(2-cyclopropyl-6-fluoro-4-{[(2Z)-imidazolidin-2-ylidene]carbamoyl}phenyl)amino]-3-fluoro-N-(1-methylcyclopropyl)pyridine-2-carboxamide]",35.3
8,"CC(C)CCC(=O)Nc1ccccc1Oc1ccc(C(=O)N=C2NCCN2)cc1C1CC1 [Compound 100, 3-cyclopropyl-N-[(2E)-imidazolidin-2-ylidene]-4-[2-(4-methylpentanamido)phenoxy]benzamide]",458
9,"CC1(NC(=O)c2cccc(Nc3ccc(C(=O)N=C4NCCN4)cc3S(C)(=O)=O)c2Cl)CC1 [Compound 102, 2-chloro-3-[(4-{[(2Z)-imidazolidin-2-ylidene]carbamoyl}-2-methanesulfonylphenyl)amino]-N-(1-methylcyclopropyl)benzamide]",819
10,"O=C(N=C1NCCN1)c1ccc(Nc2cccc(C(=O)N3CCS(=O)(=O)CC3)c2Cl)c(C2CC2)c1 [Compound 103, 4-{[2-chloro-3-(1,1-dioxo-1)^6-thiomorpholine-4-carbonyl)phenyl]amino}-3-cyclopropyl-N-[(2E)-imidazolidin-2-ylidene]benzamide]",19.4
11,"CC(C)C1COCCN1C(=O)c1cccc(Nc2ccc(C(=O)N=C3NCCN3)cc2C2CC2)c1Cl (stereo not shown) [Compound 104, 4-({2-chloro-3-[3-(propan-2-yl)morpholine-4-carbonyl]phenyl}amino)-3-cyclopropyl-N-[(2Z)-imidazolidin-2-ylidene]benzamide]",12.4
12,"CC(C)C1CN(C(=O)c2cccc(Nc3ccc(C(=O)N=C4NCCN4)cc3C3CC3)c2Cl)CCO1 (stereo not shown) [Compound 105, 4-({2-chloro-3-[2-(propan-2-yl)morpholine-4-carbonyl]phenyl}amino)-3-cyclopropyl-N-[(2Z)-imidazolidin-2-ylidene]benzamide]",3.2
13,"Cc1cc(C(=O)N=C2NCCN2)cc(C2CC2)c1Nc1cccc(C(=O)NC(C)C)c1 [Compound 106, 3-cyclopropyl-N-[(2Z)-imidazolidin-2-ylidene]-5-methyl-4-({3-[(propan-2-yl)carbamoyl]phenyl}amino)benzamide]",5.7
14,"CC(C)CC1(NC(=O)c2cccc(Nc3ccc(C(=O)N=C4NCCN4)cc3C3CC3)c2)CC1 [Compound 107, 3-cyclopropyl-N-[(2Z)-imidazolidin-2-ylidene]-4-[(3-{[1-(2-methylpropyl)cyclopropyl]carbamoyl}phenyl)amino]benzamide]",14
15,"O=C(N=C1NCCN1)c1ccc(Nc2cccc(C(=O)NCC3CCCO3)c2Cl)c(C2CC2)c1 (stereo not shown) [Compound 109, 4-[(2-chloro-3-{[(oxolan-2-yl)methyl]carbamoyl}phenyl)amino]-3-cyclopropyl-N-[(2E)-imidazolidin-2-ylidene]benzamide]",45
16,"CC(=O)N1CCN/C1=N\C(=O)c1ccc(Nc2cccc(NC(=O)C(C)C)c2)c(C2CC2)c1 [Compound 110, N-[(2E)-1-acetylimidazolidin-2-ylidene]-3-cyclopropyl-4-{[3-(2-methylpropanamido)phenyl]amino}benzamide]",324
17,"CC(C)(C)C1(NC(=O)c2cccc(Nc3ccc(C(=O)N=C4NCCN4)cc3C3CC3)c2)CC1 [Compound 111, 4-({3-[(1-tert-butylcyclopropyl)carbamoyl]phenyl}amino)-3-cyclopropyl-N-[(2Z)-imidazolidin-2-ylidene]benzamide]",30.4
18,"CC(C)NC(=O)c1cc(C#N)cc(Nc2ccc(C(=O)N=C3NCCN3)cc2C2CC2)c1 [Compound 112, 4-({3-cyano-5-[(propan-2-yl)carbamoyl]phenyl}amino)-3-cyclopropyl-N-[imidazolidin-2-ylidene]benzamide]",710
19,"CC(C)C(=O)Nc1cccc(Nc2ccc(C(=O)N=C3NCCN3CC(F)F)cc2C2CC2)c1 [Compound 113, 3-cyclopropyl-N-[1-(2,2-difluoroethyl)imidazolidin-2-ylidene]-4-{[3-(2-methylpropanamido)phenyl]amino}benzamide]",59.9
20,"O=C(N=C1NCCN1)c1ccc(Nc2cccc(C(=O)NC3(C(F)(F)F)CC3)c2Cl)c(C2CC2)c1 [Compound 114, 4-[(2-chloro-3-{[1-(trifluoromethyl)cyclopropyl]carbamoyl}phenyl)amino]-3-cyclopropyl-N-[imidazolidin-2-ylidene]benzamide]",32.6
21,"O=C(N=C1NCCN1)c1ccc(Nc2cccc(C(=O)N3CCOCC3)c2C(F)(F)F)c(C2CC2)c1 [Compound 115, 3-cyclopropyl-N-[imidazolidin-2-ylidene]-4-{[3-(morpholine-4-carbonyl)-2-(trifluoromethyl)phenyl]amino}benzamide]",29.6
22,"O=C(N=C1NCCN1)c1ccc(Nc2cccc(C(=O)NC3CC3)c2C(F)(F)F)c(C2CC2)c1 [Compound 116, 3-cyclopropyl-4-f{[3-(cyclopropylcarbamoyl)-2-(trifluoromethyl)phenyl]amino}-N—[imidazolidin-2-ylidene]benzamide]",131
23,"CC1(NC(=O)c2cccc(Nc3c(F)cc(C(=O)N=C4NCCN4)cc3C3CC3)c2)CC1 [Compound 117, 3-cyclopropyl-5-fluoro-N-[imidazolidin-2-ylidene]-4-({3-[(1-methylcyclopropyl)carbamoyl]phenyl}amino)benzamide]",5.6
24,"O=C(N=C1NCCN1)c1ccc(Nc2cc(F)cc(C(=O)N3CCOCC3)c2Cl)c(C2CC2)c1 [Compound 118, 4-{[2-chloro-5-fluoro-3-(morpholine-4-carbonyl)phenyl]amino}-3-cyclopropyl-N-[imidazolidin-2-ylidene]benzamide]",27
25,"O=C(N=C1NCCN1)c1cc(F)c(Nc2cccc(C(=O)N3CCOCC3)c2)c(C2CC2)c1 [Compound 119, 3-cyclopropyl-5-fluoro-N-[imidazolidin-2-ylidene]-4-{[3-(morpholine-4-carbonyl)phenyl]amino}benzamide]",108
26,"O=C(N=C1NCCN1)c1ccc(Nc2cccc(C(=O)N3C[C@@H]4C[C@H]3CO4)c2Cl)c(C2CC2)c1 [Compound 120, 4-({2-chloro-3-[(1S,4S)-2-oxa-5-azabicyclo[2.2.1]heptane-5-carbonyl]phenyl}amino)-3-cyclopropyl-N—[imidazolidin-2-ylidene]benzamide]",19.5
27,"O=C(N=C1NCCN1)c1ccc(Nc2cccc(C(=O)N3CCOC(C(F)(F)F)C3)c2Cl)c(C2CC2)c1 (stereo not shown) [Compound 121, 4-({2-chloro-3-[2-(trifluoromethyl)morpholine-4-carbonyl]phenyl}amino)-3-cyclopropyl-N—[imidazolidin-2-ylidene]benzamide]",5.1
28,"O=C(N=C1NCCN1)c1ccc(Nc2cccc(C(=O)N3CCOCC3C(F)(F)F)c2Cl)c(C2CC2)c1 (stereo not shown) [Compound 122, 4-({2-chloro-3-[3-(trifluoromethyl)morpholine-4-carbonyl]phenyl}amino)-3-cyclopropyl-N—[imidazolidin-2-ylidene]benzamide]",7.8

# Source: patent US12617756B2 (ABIVAX, priority 2019, dated 2026)
